Results: ChEMBL document CHEMBL1806418, “Azepanone-based inhibitors of human cathepsin S: optimization of selectivity via the P2 substituent” (Bioorg Med Chem Lett, 2011)

Experiments:
Cathepsin K [1] = target: T1, Cathepsin K (Homo sapiens, UniProt P43235); assay: Inhibition of human recombinant cathepsin K using z-LR-AFC as substrate by fluorescence assay
T1 sequence (P43235 whole entry): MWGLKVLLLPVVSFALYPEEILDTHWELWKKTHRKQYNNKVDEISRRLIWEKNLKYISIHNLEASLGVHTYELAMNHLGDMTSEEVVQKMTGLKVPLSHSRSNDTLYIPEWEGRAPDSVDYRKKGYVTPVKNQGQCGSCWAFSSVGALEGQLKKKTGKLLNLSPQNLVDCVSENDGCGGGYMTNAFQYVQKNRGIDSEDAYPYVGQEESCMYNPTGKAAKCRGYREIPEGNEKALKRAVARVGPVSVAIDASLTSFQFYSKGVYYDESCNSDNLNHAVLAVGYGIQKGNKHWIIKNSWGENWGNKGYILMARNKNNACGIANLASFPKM

Cathepsin S [2] = target: T2, Cathepsin S (Homo sapiens, UniProt P25774); assay: Inhibition of human recombinant cathepsin S using Ac-KQLR-AMC as substrate by fluorescence assay
Procathepsin L [3] = target: T3, Procathepsin L (Homo sapiens, UniProt P07711); assay: Inhibition of human recombinant cathepsin L using Z-LR-AMC as substrate by fluorescence assay
Cathepsin S [4] = target: T2, Cathepsin S; assay: Inhibition of cathepsin S in human Raji cells assessed as decrease in cell surface expression of MHC class 2/CLIP by flow cytometric analysis; assay type: cell-based
Cathepsin K [5] = target: T1, Cathepsin K; assay: Inhibition of human cathepsin K using Z-Lys-Gln-Lys-Leu-Arg-AMC as substrate after 1 hr by fluorescence assay; conditions: read-out: Ki(app)
Cathepsin S [6] = target: T2, Cathepsin S; assay: Inhibition of human cathepsin S using Z-Lys-Gln-Lys-Leu-Arg-AMC as substrate after 1 hr by fluorescence assay; conditions: read-out: Ki(app)
Procathepsin L [7] = target: T3, Procathepsin L; assay: Inhibition of human cathepsin L using Z-Phe-Arg-AMC as substrate after 1 hr by fluorescence assay; conditions: read-out: Ki(app)

T2 sequence (P25774 whole entry): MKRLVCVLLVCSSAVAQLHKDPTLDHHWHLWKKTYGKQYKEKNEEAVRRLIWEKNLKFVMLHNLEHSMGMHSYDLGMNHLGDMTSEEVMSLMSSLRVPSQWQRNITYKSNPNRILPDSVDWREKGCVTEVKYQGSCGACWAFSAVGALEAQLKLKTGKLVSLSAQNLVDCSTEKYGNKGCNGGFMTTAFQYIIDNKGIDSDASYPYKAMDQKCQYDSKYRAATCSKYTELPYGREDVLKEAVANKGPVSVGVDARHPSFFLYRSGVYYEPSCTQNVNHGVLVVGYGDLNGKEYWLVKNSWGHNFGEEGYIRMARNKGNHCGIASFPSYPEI
T3 sequence (P07711 whole entry): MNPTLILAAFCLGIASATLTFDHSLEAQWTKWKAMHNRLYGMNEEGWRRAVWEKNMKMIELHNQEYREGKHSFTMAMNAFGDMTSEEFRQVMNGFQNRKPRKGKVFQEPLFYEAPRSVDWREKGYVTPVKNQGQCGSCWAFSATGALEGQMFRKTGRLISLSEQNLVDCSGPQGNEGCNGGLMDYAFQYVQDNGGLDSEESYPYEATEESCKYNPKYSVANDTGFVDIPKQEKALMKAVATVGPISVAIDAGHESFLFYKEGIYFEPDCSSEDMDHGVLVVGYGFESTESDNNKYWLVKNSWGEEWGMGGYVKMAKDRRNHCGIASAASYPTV

SMILES	IC50 (Cathepsin K [1]) [µM]	IC50 (Cathepsin S [2]) [µM]	IC50 (Procathepsin L [3]) [µM]	IC50 (Cathepsin S [4]) [µM]	Ki (Cathepsin K [5]) [µM]	Ki (Cathepsin S [6]) [µM]	Ki (Procathepsin L [7]) [µM]
C[C@@H]1CC[C@H](NC(=O)[C@H](CC2CCC(C)(C)CC2)NC(=O)c2ccco2)C(=O)CN1S(=O)(=O)c1ccccn1	6.2	0.0012	0.0585				
C[C@@H]1CC[C@H](NC(=O)[C@H](CC2=CCCC2)NC(=O)c2ccco2)C(=O)CN1S(=O)(=O)c1ccccn1	0.009	0.0049	0.0038				
C[C@@H]1CC[C@H](NC(=O)[C@H](CC2(C)CCCCC2)NC(=O)N2CCOCC2)C(=O)CN1S(=O)(=O)c1ccccn1	0.136	< 0.0004	0.0487	0.57			
C[C@@H]1CC[C@H](NC(=O)[C@H](CCC2CCCC2)NC(=O)N2CCOCC2)C(=O)CN1S(=O)(=O)c1ccccn1	1.1	0.00058	0.0108				
C[C@@H]1CC[C@H](NC(=O)[C@H](CC2(C)CCCC2)NC(=O)c2ccco2)C(=O)CN1S(=O)(=O)c1ccccn1	0.0112	< 0.0004	0.0224				
C[C@@H]1CC[C@H](NC(=O)[C@H](CC2CCCCC2)NC(=O)c2ccco2)C(=O)CN1S(=O)(=O)c1ccccn1	0.0405	0.0005	0.0012	1.78			
CC(C)C[C@H](NC(=O)c1ccco1)C(=O)N[C@H]1CC[C@@H](C)N(S(=O)(=O)c2ccccn2)CC1=O	0.001	0.0029	0.00053				
C[C@@H]1CC[C@H](NC(=O)[C@H](CC2CCCC2)NC(=O)c2ccco2)C(=O)CN1S(=O)(=O)c1ccccn1	0.0277	0.00076	0.0048				
C[C@@H]1CC[C@H](NC(=O)[C@H](CC2(C)CCCCC2)NC(=O)c2ccco2)C(=O)CN1C(=O)c1ccccn1	0.263	0.0015	0.429	3.88			

Second part, the compound after the results:

IC50 (Cathepsin K [1]) [µM]	IC50 (Cathepsin S [2]) [µM]	IC50 (Procathepsin L [3]) [µM]	IC50 (Cathepsin S [4]) [µM]	Ki (Cathepsin K [5]) [µM]	Ki (Cathepsin S [6]) [µM]	Ki (Procathepsin L [7]) [µM]	SMILES
0.0047	0.0013	0.0115	4.8				C[C@@H]1CC[C@H](NC(=O)[C@H](CC(C)(C)C)NC(=O)c2ccco2)C(=O)CN1S(=O)(=O)c1ccccn1
2.3	0.037	1.7					C[C@@H]1CC[C@H](NC(=O)[C@@H](CC2(C)CCCCC2)NC(=O)c2ccco2)C(=O)CN1S(=O)(=O)c1ccccn1
0.84	0.0019	0.0107					C[C@@H]1CC[C@H](NC(=O)[C@H](CCC2CCCC2)NC(=O)c2ccco2)C(=O)CN1S(=O)(=O)c1ccccn1
0.45	0.0005	0.001					CC1CCC(C[C@H](NC(=O)c2ccco2)C(=O)N[C@H]2CC[C@@H](C)N(S(=O)(=O)c3ccccn3)CC2=O)CC1 (stereo not given in full)
0.0445	< 0.0004	0.0319	1.4				C[C@@H]1CC[C@H](NC(=O)[C@H](CC2(C)CCCCC2)NC(=O)c2ccco2)C(=O)CN1S(=O)(=O)c1ccccn1
1.9	0.101	4.4					C[C@@H]1CC[C@H](NC(=O)[C@@H](CC2(C)CCCC2)NC(=O)c2ccco2)C(=O)CN1S(=O)(=O)c1ccccn1
0.0282	< 0.0004	< 0.0004					C[C@@H]1CC[C@H](NC(=O)[C@H](CC2CCCCCC2)NC(=O)c2ccco2)C(=O)CN1S(=O)(=O)c1ccccn1
0.01	0.0316	0.01					CC(C)C[C@H](NC(=O)c1ccco1)C(=O)N[C@H]1CC[C@@H](C)N(C(=O)c2ccccn2)CC1=O
				> 10			O=C(N[C@@H](Cc1ccc2ccccc2c1)C(=O)N[C@H]1CCCN(S(=O)(=O)c2ccccn2)CC1=O)c1cccc2ccccc12
0.174	0.0015	0.139					C[C@@H]1CC[C@H](NC(=O)[C@H](CC23CCC(CC2)C3(C)C)NC(=O)N2CCOCC2)C(=O)CN1S(=O)(=O)c1ccccn1
	0.0083		0.94	0.0001	0.0083	0.0012	CC(C)C[C@H](NC(=O)c1cc2cc(OCCN3CCOCC3)ccc2o1)C(=O)N[C@H]1CCCN(C(=O)Cc2cccc(-c3ccccn3)c2)CC1=O
